According to PubChem BioAssay (NCI):
Values joined by “and” are separate entries in the source; they are usually repeats but may differ in a detail not shown here. Identical values can stand only once.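 A five-concentration, 48-hour dose response in 96-well plates underlies each endpoint, interpolated linearly between surrounding concentrations. GI50: concentration for 50% inhibition of growth. The concentration for full growth arrest is given as TGI.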

Columns and labels:
Test in all cases: NCI tumour cell line growth inhibition, 48 h
OVCAR-4 ovarian = test system: OVCAR-4 ovarian
SNB-75 CNS = test system: SNB-75 CNS
DU-145 prostate = test system: DU-145 prostate
NCI-H522 lung = test system: NCI-H522 lung
M14 melanoma = test system: M14 melanoma
SF-539 CNS = test system: SF-539 CNS
LOX IMVI melanoma = test system: LOX IMVI melanoma
HCT-116 colon = test system: HCT-116 colon
HCT-15 colon = test system: HCT-15 colon
NCI-H460 lung = test system: NCI-H460 lung

| SMILES | GI50 (OVCAR-4 ovarian) | TGI (OVCAR-4 ovarian) | GI50 (SNB-75 CNS) | TGI (SNB-75 CNS) | GI50 (DU-145 prostate) | TGI (DU-145 prostate) | GI50 (NCI-H522 lung) | TGI (NCI-H522 lung) | GI50 (M14 melanoma) | TGI (M14 melanoma) | GI50 (SF-539 CNS) | TGI (SF-539 CNS) | GI50 (LOX IMVI melanoma) | TGI (LOX IMVI melanoma) | GI50 (HCT-116 colon) | TGI (HCT-116 colon) | GI50 (HCT-15 colon) | TGI (HCT-15 colon) | GI50 (NCI-H460 lung) | TGI (NCI-H460 lung) |
| --- | --- | --- | --- | --- | --- | --- | --- | --- | --- | --- | --- | --- | --- | --- | --- | --- | --- | --- | --- | --- |
| COc1ccc2ccc3oc([N+](=O)[O-])cc3c2c1 | 828 nM | 5410 nM | 166 nM | 527 nM | 123 nM | 2140 nM | 169 nM | 563 nM | 115 nM | 307 nM | 275 nM | 1070 nM | 55.7 nM | 355 nM | 189 nM | 1210 nM | 218 nM | 1270 nM | 114 nM | 405 nM |
| O=C(O)c1cc2ccccc2c2c1C(=O)c1ccccc1-2 | – | > 100000 nM | – | > 100000 nM | – | > 100000 nM | – | > 100000 nM | – | > 100000 nM | – | > 100000 nM | – | > 100000 nM | – | > 100000 nM | – | > 100000 nM | – | > 100000 nM |
| CNCCN=c1ccc2c3c1c(O)c1c(O)ccc(=O)c1c3[nH]n2CCNCCO | 861 nM and 923 nM | 3260 nM and 5540 nM | 29.4 nM and 77.2 nM | 387 nM and 149 nM | – | 1270 nM and 942 nM | 194 nM and 627 nM | – | 397 nM and 1190 nM | 3410 nM and 10400 nM | 57.6 nM | 1320 nM | 94.9 nM and 395 nM | – | 207 nM | 4900 nM and 5370 nM | 1520 nM | 24800 nM and 41200 nM | 0.851 nM | 1210 nM |
| O=C(O)C(Oc1nc(=S)[nH]c(=S)[nH]1)(c1ccc(Cl)cc1)c1ccc(Cl)cc1 | – | > 100000 nM | – | > 100000 nM | – | > 100000 nM | – | > 100000 nM | – | > 100000 nM | – | > 100000 nM | – | > 100000 nM | – | > 100000 nM | – | > 100000 nM | – | > 100000 nM |
| CCN(CC)C(=S)[S][Bi]([S]C(=S)N(CC)CC)[S]C(=S)N(CC)CC | 165 nM | 310 nM | 213 nM | 527 nM | 1280 nM | 2590 nM | 15.7 nM | 33.2 nM | 218 nM | 485 nM | 195 nM | 436 nM | 261 nM | 745 nM | 85.8 nM | 247 nM | 164 nM | 348 nM | 1440 nM | 3070 nM |
| COC(=O)C(C)NC(=O)c1ccccc1I(OS(=O)(=O)C(F)(F)F)c1ccccc1 (configuration not stated) | 19100 nM | 50900 nM | > 49000 nM | > 87800 nM | 25600 nM | > 71100 nM | 23900 nM | 64900 nM | 1230 nM | 32800 nM | 22700 nM | 45600 nM | 22500 nM | > 60600 nM | 30000 nM | > 100000 nM | 16000 nM | 41700 nM | 20400 nM | 59100 nM |
| O=C1C(Cl)=C(Nc2cccc(O)c2)C(=O)N1Cc1ccc(Cl)cc1Cl | 2900 nM | 15000 nM | 6100 nM | 20600 nM | 11300 nM | 24200 nM | 1430 nM | 9950 nM | 8180 nM | 22800 nM | 561 nM | 13800 nM | 4060 nM | 15500 nM | 2010 nM | 12400 nM | 7450 nM | 22600 nM | 11400 nM | 29700 nM |
